The results in this text go back to Sander's compilation of Henry's law constants (doi:10.1016/j.atmosenv.2016.10.009).

This data set can be described thus: Henry solubility constant Hcp at 298.15 K (mol/(m3 Pa)). The settings on record: reference: Odabasi and Adali (2016).
For the molecule `Clc1cc2c(Cl)c(Cl)c(Cl)c(Cl)c2c(Cl)c1Cl` [1,2,3,4,5,6,7-heptachloronaphthalene], the “Henry solubility constant Hcp” value worked out at 3.6.
For `Clc1cc(Cl)c2c(Cl)c(Cl)c(Cl)c(Cl)c2c1Cl` [1,2,3,4,5,6,8-heptachloronaphthalene] the value was 2.4; for `Clc1ccc2c(Cl)c(Cl)c(Cl)c(Cl)c2c1Cl` [1,2,3,4,5,6-hexachloronaphthalene], 0.78.
For `Clc1c(Cl)c(Cl)c2c(Cl)ccc(Cl)c2c1Cl` [1,2,3,4,5,8-hexachloronaphthalene] the value was 0.93; for `Clc1ccc2c(Cl)c(Cl)c(Cl)c(Cl)c2c1` [1,2,3,4,6-pentachloronaphthalene], 0.078.
For `Clc1cc2c(Cl)cc(Cl)c(Cl)c2c(Cl)c1Cl` [1,2,3,5,7,8-hexachloronaphthalene] the value was 0.43.
On to `Clc1cc2c(Cl)ccc(Cl)c2c(Cl)c1Cl` [1,2,3,5,8-pentachloronaphthalene], for which the “Henry solubility constant Hcp” value came out at 0.17.
As for `Clc1cc(Cl)c2c(Cl)c(Cl)ccc2c1Cl` [1,2,4,5,6-pentachloronaphthalene], the figure is 0.14.
As for `Clc1cc(Cl)c2c(Cl)cc(Cl)c(Cl)c2c1` [1,2,4,5,7-pentachloronaphthalene], the figure is 0.089; as for `Clc1cc(Cl)c2c(Cl)ccc(Cl)c2c1Cl` [1,2,4,5,8-pentachloronaphthalene], 0.26; as for `Clc1cc(Cl)c2c(Cl)cccc2c1Cl` [1,2,4,5-tetrachloronaphthalene], 0.15.
Take `Clc1cc(Cl)c2c(Cl)c(Cl)cc(Cl)c2c1` [1,2,4,6,8-pentachloronaphthalene]: the “Henry solubility constant Hcp” value came out at 0.1.
As to `Clc1ccc2c(Cl)cc(Cl)c(Cl)c2c1Cl` [1,2,4,7,8-pentachloronaphthalene], the “Henry solubility constant Hcp” value turned out to be 0.17.
As to `Clc1ccc2c(Cl)cccc2c1Cl` [1,2,5-trichloronaphthalene], the “Henry solubility constant Hcp” value worked out at 0.11.
For `Clc1ccc2c(Cl)c(Cl)ccc2c1` [1,2,6-trichloronaphthalene] the value was 0.17; for `Clc1cc(Cl)c2cccc(Cl)c2c1` [1,3,5-trichloronaphthalene], 0.071; for `Clc1ccc(Cl)c2c(Cl)ccc(Cl)c12` [1,4,5,8-tetrachloronaphthalene], 0.35.
For `Clc1ccc(Cl)c2c(Cl)cccc12` [1,4,5-trichloronaphthalene] the value was 0.22.
As for `Clc1c(Cl)c(Cl)c2c(Cl)c(Cl)c(Cl)c(Cl)c2c1Cl` [octachloronaphthalene], the figure is 1.2.
